Read-outs that look alike come from different tables or passages of the source.
How the values were obtained:
NEK1 = target: T1, NEK1 (Homo sapiens, UniProt Q96PY6); settings: cited from earlier work
T1 sequence (Q96PY6 1-1258): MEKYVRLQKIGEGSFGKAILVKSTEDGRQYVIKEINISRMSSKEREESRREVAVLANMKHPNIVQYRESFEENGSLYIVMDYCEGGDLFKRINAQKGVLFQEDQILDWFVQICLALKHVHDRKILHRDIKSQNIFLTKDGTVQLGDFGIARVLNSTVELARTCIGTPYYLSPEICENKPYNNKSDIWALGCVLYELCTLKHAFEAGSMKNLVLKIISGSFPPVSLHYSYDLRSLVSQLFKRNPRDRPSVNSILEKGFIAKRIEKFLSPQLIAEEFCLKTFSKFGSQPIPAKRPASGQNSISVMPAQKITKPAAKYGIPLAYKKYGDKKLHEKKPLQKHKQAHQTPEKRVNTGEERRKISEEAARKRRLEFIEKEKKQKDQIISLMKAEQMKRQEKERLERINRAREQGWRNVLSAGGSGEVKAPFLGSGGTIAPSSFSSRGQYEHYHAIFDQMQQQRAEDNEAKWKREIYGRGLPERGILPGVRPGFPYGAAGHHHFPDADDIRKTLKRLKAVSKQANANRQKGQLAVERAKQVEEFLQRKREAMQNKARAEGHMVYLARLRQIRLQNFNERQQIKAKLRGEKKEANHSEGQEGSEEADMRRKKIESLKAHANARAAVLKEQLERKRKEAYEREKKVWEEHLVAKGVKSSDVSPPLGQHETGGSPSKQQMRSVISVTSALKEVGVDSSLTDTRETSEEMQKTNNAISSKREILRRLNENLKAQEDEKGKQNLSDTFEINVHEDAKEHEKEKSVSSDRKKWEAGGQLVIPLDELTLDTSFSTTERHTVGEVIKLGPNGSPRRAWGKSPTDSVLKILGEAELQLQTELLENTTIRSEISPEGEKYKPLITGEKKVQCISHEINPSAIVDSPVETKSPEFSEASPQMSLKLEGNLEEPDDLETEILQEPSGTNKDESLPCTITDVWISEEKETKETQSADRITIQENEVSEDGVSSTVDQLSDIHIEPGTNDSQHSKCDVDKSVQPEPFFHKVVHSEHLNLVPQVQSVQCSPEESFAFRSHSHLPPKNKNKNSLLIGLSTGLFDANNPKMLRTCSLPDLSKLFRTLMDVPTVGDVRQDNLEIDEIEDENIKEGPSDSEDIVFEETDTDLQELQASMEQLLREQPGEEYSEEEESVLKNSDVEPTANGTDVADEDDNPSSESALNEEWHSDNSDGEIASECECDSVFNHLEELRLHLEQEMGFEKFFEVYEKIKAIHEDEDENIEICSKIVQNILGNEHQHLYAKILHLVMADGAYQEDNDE

MDA-MB-468 cells [1] = assay: Dose-matrix combination assay (synergy score, Loewe model); assay type: cell-based; settings: combination with DUBA; MDA-MB-468, 6 d; S ± SD; cutoff ±1
Description: (§1) Dose-matrix combination assays were performed as described above, but performed in opague 384-well plates (2k viable cells/well). Compounds were added using Tecan D300e liquid. Protein solutions were supplemented with 0.3% Tween-20 (final) and diluted to 1 μM. All wells were normalized to the maximum amount of DMSO (maximum 0.4%) or Tween-20 added. […] Luminescence values were normalized to luminescence of non-treated cells and dose-response was fitted using Smart Fit. Synergy scores were calculated using LOEWE synergy model.
(§2) The screening of synergistic drug combinations can be accomplished by performing a dose-matrix assay. Therefore, two drugs are serial diluted and mixed at every dose level, yielding a dose-matrix. The drug combination can be additive if the effects of the combination are identical to the added effects of the single agents. However, the effects of the combination might also be stronger than the activity of the single agents. This scenario is termed synergy, whereas weaker combination effects compared to the single agents are termed antagonism. A dose-matrix assay is depicted schematically in FIG. 2 which illustrates the outcomes of a dose-matrix assay: additivity, antagonism and synergy.
(§3) The screening was conducted by serial diluting the duocarmycin derivative DUBA (10) and the DDR inhibitors. […] DUBA was combined in a dose-matrix assay with hycanthone. The cell viability was measured after 6 d of treatment using the CellTiter-Glo assay kit. The signals of the cell viability assay were normalized to untreated cells and fitted. […] By subtracting the modeled data from the fitted data, an excess matrix was generated. The excess matrix can be considered as a visualization of the differences between model and actual data which also highlights spots of either high synergy or antagonism. The quantification of the combination effects, however, was performed by calculating synergy scores. […] Besides synergy score, the potency of the drugs in monotherapy was obtained from these experiments. […] The potency was obtained from this dose-response curve.
(§4) The scattering of S was determined in a sham control experiment to define a cutoff for classifying a combination as truly synergistic or antagonistic. Thus seven different compounds were combined with itself on four different cell lines and the three-σ confidence interval was calculated around the mean of the measurement. […] For the sake of convenience, the cutoff was set to a value of ±1.
(§5) Synergy scores (S) were obtained from the combination experiments that indicated additivity […] if model and actual response were equal. […] The magnitude of the score determined the extent of the combination effects.

HCC-1954 cells [2] = assay: as above; assay type: cell-based
Description: as §1, §2, §3, §4, §5

HCC-1954 cells [3] = assay: Cytotoxicity (cell viability, CellTiter-Glo, 6 d); assay type: cell-based; settings: Homo sapiens, HCC1954, HCC-1954
Description: as §1
After 6 d of treatment, CellTiter-Glo luminescent assay was performed and the luminescence was read on Envision Reader. The results were analyzed using GeneData Screener as described before.

JIMT-1 cells = assay: MNED curve-shift assay; assay type: cell-based
Text: (§6) Therefore a curve-shift assay system was established. In a first step, a dose-response curve (DRC) is obtained by treating a certain cell line with an inhibitor. The maximum non-efficacious dose (MNED) can be derived from this DRC. MNED is the highest dose, that can be added to a certain cell line without affecting the viability. The activity of the ADC is confirmed in a separate experiment. Finally, a combination experiment can be conducted. Therefore, the ADC and ADC plus inhibitor at MNED are added to the cells. The inhibitor is tested in parallel at MNED as a control. Due to the application of inhibitor at MNED, no reduction in cell viability caused by the inhibitor is expected. Three outcomes are possible: 1) The combination of ADC plus inhibitor is equipotent as the ADC only. […] Such a result would be interpreted as depotentiation. […] In this case, the potency of the ADC is potentiated.
(§7) Potentiation effects are expressed as dose-reduction indices (DRI), which can be calculated by dividing the IC50-value of ADC by the IC50-value of ADC plus inhibitor according to eq. 1
(§8) Curve-shift assays were conducted as follows: The cell number and viability was determined using ViCell™-XR (Beckman Coulter) and seeded in opague 96-well plate (10k viable cells/well). After seeding, the plate was incubated (37° C., 5% C02) in a humid chamber overnight. Compounds were diluted in the appropriate medium, added to the cells and the plate was incubated (37° C., 5% CO2, 6 d) in a humid chamber. After 30 min equilibration at room temperature, CellTiter-Glo reagent (Promega) was added. After the plate was shaken (3 min, 550 rpm, rt) it was incubated (10 min, rt) and luminescence was read on a synergy 4 plate reader (BioTek). Evaluation was performed using GraphPad Prism version 6.05. Therefor luminescence values were normalized to luminescence values of non-treated cells and dose-response was fitted with 4-point logistic fit.
(§9) The determination of dose-reduction indices (DRI) in a maximum non-efficacious dose (MNED) curve-shift assay is a 3-step process as depicted exemplarily in FIG. 13. The cytotoxicity of the ADC is confirmed in a cell viability assay in an initial step. […] In the second step. the MNED of the ATRi was determined. […] In order to obtain a full […] for the combination, the starting concentration of the ADC was lowered compared to the experiment in step 1.

Calu-3 cells = assay: MNED curve-shift assay; assay type: cell-based
Text: as §6, §7, §8, §9

MDA-MB-453 cells = assay: MNED curve-shift assay; assay type: cell-based
Text: as §6, §7, §8, §9

SK-BR-3 cells = assay: MNED curve-shift assay; assay type: cell-based
Text: as §6, §7, §8, §9

BT-474 cells = assay: MNED curve-shift assay; assay type: cell-based
Text: as §6, §7, §8, §9

MDA-MB-468 cells [4] = assay: MNED curve-shift assay; assay type: cell-based
Text: as §6, §7, §8, §9

SK-OV-3 cells = assay: MNED curve-shift assay; assay type: cell-based
Text: as §6, §7, §8, §9

HCC-1954 cells [5] = assay: MNED curve-shift assay; assay type: cell-based; settings: HCC-1954
Text: as §6, §7, §8, §9

A549 cells = assay: Dose-matrix combination assay (synergy score, Loewe model); assay type: cell-based; settings: combination with AZD6738; A549 (EGFR-positive), 6 d
Description: (§10) Dose-matrix combination assays were performed as described above, but performed in opague 384-well plates (2k viable cells/well). Compounds were added using Tecan D300e liquid. Protein solutions were supplemented with 0.3% Tween-20 (final) and diluted to 1 μM. All wells were normalized to the maximum amount of DMSO (maximum 0.4%) or Tween-20 added. Read out of luminescence was performed on Envision 2104 Multilabel Reader (Perkin Elmer) and data were evaluated using Genedata Screener® version 14.0.6-Standard (Genedata AG). Luminescence values were normalized to luminescence of non-treated cells and dose-response was fitted using Smart Fit. Synergy scores were calculated using LOEWE synergy model.
as §2

MCF7 cells = assay: Cytotoxicity (cell viability); assay type: cell-based; settings: Homo sapiens; MCF7 (EGFR −, MET −), Table 10
Description: as §8, §10

MDA-MB-468 cells [6] = assay: Cytotoxicity (cell viability, CellTiter-Glo, 6 d); assay type: cell-based; settings: Homo sapiens, MDA-MB-468; read-out: IC50
[7] = combination with DUBA, HCC-1954, 6 d, S ± SD, cutoff ±1

SMILES: COc1cc(-c2cnc(N)c(N3CC[C@@H](C(=O)O)[C@@H](C)[C@H]3C)n2)cc(OC)c1OC [Cmpd31]
- potency of NEK1 inhibition (NEK1): 170000 pM
- Synergy score S (MDA-MB-468 cells [1]): 0.4±0.2
- Synergy score S (HCC-1954 cells [2]; [7]): 0.3±0.1

SMILES: CNCc1ccc(-c2cc(-c3nc(-c4ccc(S(=O)(=O)C(C)C)cc4)cnc3N)on2)cc1 [VE-822]
- IC50 (HCC-1954 cells [3]; ATRi alone, mean ± SD, read-out: Cytotoxicity IC50): 900000 ± 400000 pM
- MNED (maximum non-efficacious dose) (JIMT-1 cells): 80 nM
- MNED (maximum non-efficacious dose) (Calu-3 cells): 80 nM
- MNED (maximum non-efficacious dose) (MDA-MB-453 cells): 40 nM
- MNED (maximum non-efficacious dose) (SK-BR-3 cells): 125 nM
- MNED (maximum non-efficacious dose) (BT-474 cells): 1000 nM
- MNED (maximum non-efficacious dose) (MDA-MB-468 cells [4]): 300 nM
- MNED (maximum non-efficacious dose) (SK-OV-3 cells): 125 nM
- MNED (maximum non-efficacious dose) (HCC-1954 cells [5]): 250 nM
- Synergy score S (HCC-1954 cells [2]; combination with ADC αHER2-2, HCC-1954): 5.7±0.3
- Synergy score S (HCC-1954 cells [2]; [7]): 5.3±0.6

SMILES: COC(=O)c1cc2c3c(cc(O)c2[nH]1)N(C(=O)c1cc2cc(OC)c(OC)c(OC)c2[nH]1)C[C@H]3CCl [compound 13]
- Synergy score S (A549 cells): additive effects
- IC50 (MCF7 cells): 60 ± 20 pM
- IC50 (HCC-1954 cells [3]; duocarmycin variant alone, mean ± SD or mean (individual values), read-out: IC50): 300 ± 100 pM
- IC50 (MDA-MB-468 cells [6]): 140 ± 70 pM
- Synergy score S (HCC-1954 cells [2]; combination with AZD6738, HCC-1954, 6 d): 4.1 ± 0.4
- Synergy score S (HCC-1954 cells [2]; combination with AZD6738, HCC-1954, 6 d, listed as DSA (13)): 4.1±0.4

— patent US12616750B2, “Combination therapy utilizing DNA alkylating agents and ATR inhibitors” (Merck Patent GmbH, priority 2018, dated 2026)
